Entries after “also recorded” stand apart in the source; their conditions may differ.
What was measured:
[1] = system: G-quadruplexes in the HIV-1 LTR (G4 LTR FRET oligonucleotide); experiment: FRET melting assay; assay type: binding; details: 2 μM compound, 0.2 μM oligonucleotide; for Tm: 100 mM KCl, mean and standard error, three experiments; for ΔTm: average Tm minus average Tm of PBS
[2] = system: HIV-1 LTR G-quadruplex template (G4 LTR Stop); experiment: Taq polymerase stop assay; assay type: biochemical; details: for Fold change, all regions (A, B and C) together: normalized against control; for Fold change: A (G-patch 6′) / Fold change: B (G-patch 6) / Fold change: C (G-patch 5): 2.5 µM, pixel intensity normalized against negative control; for G-quadruplex stabilization / stop band pattern: Taq polymerase pausing at G-patches, 1-5 μM
Protocol: To address specifically the positions in the HIV-1 promoter region that are affected by the binding of G4-stabilizing agents, we performed a Taq polymerase stop assay. The wild-type LTR oligonucleotide was extended at the […] to include a primer-annealing region and used as a template for a single-cycle Taq polymerase reaction. The elongation of the radioactively labelled primer was performed at 45 °C in the presence or absence of the tested compounds and controls.
A Taq polymerase stop assay was carried out as described in a previous study. Briefly, the primer (G4 LTR primer, Supplementary Table S1) was 5′-end labelled with [γ-^32P]ATP using T4 polynucleotide kinase at 37 °C for 30 min. The T4 polynucleotide kinase was then inactivated by incubation at 65 °C for 5 min. The radioactively labelled primer was column-purified and stored at − 20 °C for further use. The labelled primer (1.7 pmol) was annealed to the template (2.1 pmol) in the LiCaco buffer and extended with the Go Taq DNA polymerase (2U/reaction, Promega) at 45 °C for 45 min. Samples were incubated with G-quadruplex-ligands at 45 °C for 45 min before DNA polymerase addition. The reactions were stopped by a denaturing solution (80% formamide, 10% glycerol, 0.025% xylen cyanol, 0.025% bromphenol blue and 10 mM EDTA pH 8); extension products were separated on 15% denaturing gel and visualized by phosphorimaging. The pixel intensity of bands was calculated using 1D gel analysis in ImageQuant TL software version 8.1 (GE HealthCare) after automatic background subtraction by Rolling Ball method.

[3] = system: HIV-1; experiment: Replication assay (RT activity in supernatant); assay type: cell-based; details: 10 µM, compound added 1 h after infection of MT-4 cells, RT activity 5 days after infection
Protocol: To address virion binding and entry in a competitive setting, we performed an adsorption assay where test compounds and virions were added to MT-4 cells simultaneously and were washed out after 2 h of incubation. In parallel, we performed a replication assay where MT-4 cells were infected with HIV-1 and the tested compounds were added 1 h later. In both cases, the infection was evaluated by measuring reverse transcriptase activity in a cell-free supernatant 5 days after the infection (Fig. 3). As controls, PBS (phosphate-buffered saline) and inhibitors of different HIV-1 life-cycle steps were used: AMD (AMD3100), an inhibitor of gp120 attachment to CXCR4 receptors of the target cell, thus preventing HIV-1 adsorption and entry; AZT (azidothymidine), an inhibitor of reverse transcriptase; and RAL (raltegravir), an integrase inhibitor.
MT-4 cells were seeded in 80 µl of the Roswell Park Memorial Institute (RPMI) medium in the amount of 2 × 10^5 cells per well of a 96-well plate, and 10 µl of the virus stock were immediately added with the final multiplicity of infection (MOI) of 0.05. For a replication assay, the infected cells were incubated at 37 °C for 1 h before the addition of compounds being tested (10 µM final concentration) and subsequently cultivated at 37 °C for another 5 days. For an adsorption test, by contrast, the compounds (10 µM final concentration) were added simultaneously with the virus, and after 2 h of incubation, the cells were washed three times with PBS to remove the compounds and unbound virions; after the addition of 100 µl of the RPMI medium, the cells were cultivated at 37 °C for 5 days. Five days post-infection, aliquots of virus-containing cell-free supernatants were harvested and analysed by reverse transcriptase (RT) assay (described in the Supplementary Information). The experiments were performed as biological replicates where the sample size for each condition was n = 3.
(§1) RT assay. The reverse transcriptase (RT) activity in a cell-free supernatant was assessed by an α-32P RT assay. Briefly, the RT activity in the culture medium, which corresponded to the amount of HIV-1, was used to produce a DNA copy of an RNA template by extending a complementary oligo dT DNA primer with radiolabelled nucleotides. A reaction mixture containing 50 mM Tris-HCl pH 7.8, 75 mM KCl, 2 mM DTT, 5 mM MgCl2 and 0.5% NP-40 (all Sigma-Aldrich), 5 µg per ml of poly (rA)-poly (dT) (The Midlan Certified Reagent Company) with 1 µl 10-mCi/ml [α-32P]dTTP (American Radiolabeled Chemicals) per ml, and the tested sample was incubated at 37°C for two hours, after which 10 µl were spotted on DEAE blotting paper (PerkinElmer) and air-dried. After five washes with SSC buffer (0.15 M NaCl, 0.015 M sodium citrate) and three additional washes with 85% ethanol, the blotting paper was exposed to Phosphoscreen overnight, which was scanned on a Typhoon 9410 Phosphorimager instrument (GE Healthcare). The intensity of the dots was analysed by the ImageQuant software (GE Healthcare).

[4] = system: NL4-3 HIV-1; experiment: Modified time-of-addition assay; assay type: cell-based; details: 10 μM, MT-4 cells, RT activity 31 h post-infection; for activity by time of addition: added 2-24 h post-infection
Protocol: There are indications that G4s in the HIV-1 promoter might play roles in both RNA and DNA forms. G4s present in the LTR region of HIV-1 genomic RNA could influence reverse transcription. By contrast, G4s in the promoter region of the integrated HIV-1 provirus might regulate the transcription of viral genome and of viral mRNAs and thus the expression of viral proteins and the production of new virions - both the later stages of the HIV-1 life cycle. A modified time-of-addition assay was performed with an emphasis on the later stages of the HIV-1 life cycle, such as reverse transcription, integration and provirus expression. The tested compounds were added at several time points, but the initial time point was 2 h post-infection to eliminate their virucidal/adsorption/entry effects. Several inhibitors of the individual steps of the HIV-1 life cycle were used as controls to resolve the post-entry steps of the HIV-1 life cycle. MT-4 cells were infected with NL4-3 HIV-1 and the infection was allowed to proceed for 1 h. Subsequently, the unbound virions were washed out, and the cells were resuspended in fresh media. The compounds were first added 2 h after the infection. The culture media were harvested 31 h later and the number of released virions was monitored through the activity of reverse transcriptase in the culture media (Fig. 4).
MT-4 cells were infected with NL4-3 HIV-1 at a MOI of 1. After 1 h, the cells were washed, seeded (100,000 cells/well) and incubated at 37 °C. […] HIV-1 production was determined 31 h post-infection by measuring RT activity in the supernatant.
as §1

Structure (SMILES)	Tm [1] [°C]	ΔTm [1] [°C]	Fold change, all regions (A, B and C) together ([2]; 1 μM)	Fold change, all regions (A, B and C) together ([2]; 2.5 μM)	Fold change: A (G-patch 6′) [2]	Fold change: B (G-patch 6) [2]	Fold change: C (G-patch 5) [2]	Fold change, all regions (A, B and C) together ([2]; 5 μM)	G-quadruplex stabilization / stop band pattern [2]	effect on viral replication [3]	latest time of administration post-infection with retained antiviral activity [4]	activity by time of addition [4]
Cn1cc(/C=C/c2cc(/C=C/c3cn(C)c4ccccc34)[n+]3c(c2)-c2c(ccc4c2-c2cccc[n+]2CCC4)CCC3)c2ccccc21 [Compound 12]	79 ± 0.2	28	1.4	1.9	1.9	2.1	1.5	1.8	exhibit their stabilization effect even at 1 μM concentration; also recorded: stop bands only in G-patch 6	significantly impairing viral replication	up to 8 h	preserved their activity at later time points
C(=C\c1cc(/C=C/c2ccc3c(c2)CCO3)[n+]2c(c1)-c1c(ccc3c1-c1cccc[n+]1CCC3)CCC2)/c1ccc2c(c1)CCO2 [Compound 14]	64 ± 0.2	13	1.2	1.7	1.4	2.0	1.5	1.8	stop bands only in G-patch 6	significantly impairing viral replication	up to 8 h	preserved their activity at later time points
COc1ccc2ccccc2c1/C=C/c1cc[n+]2c(c1)-c1c(c(C)c(C)c3c1-c1cc(/C=C/c4c(OC)ccc5ccccc45)cc[n+]1CC3)CC2 [Compound 15]	70 ± 1.0	19	1.6	2.4	2.8	2.5	1.8	2.5	strong stop bands also in G-patch 6′; also recorded: exhibit their stabilization effect even at 1 μM concentration	significantly impairing viral replication	≤ 5 h	mainly manifested when these compounds are administered before or early during reverse transcription
